# PMC10451377, “Rationally Designed Pyrimidine Compounds: Promising Novel Antibiotics for the Treatment of Staphylococcus aureus-Associated Bovine Mastitis” (Antibiotics, 2023)
# Entries after “also recorded” stand apart in the source; their conditions may differ.
# Legend:
# Bovine S. aureus = experiment: Susceptibility of isolate panel (MIC50, MIC90, range); type: cell-based, Staphylococcus aureus; conditions: Bovine S. aureus, 48 isolates
# Description: (§1) Reference strains for this study (S. aureus ATCC 29213, ATCC 29740 [bovine mastitis strain Newbould], S. epidermidis ATCC 12228, E. coli ATCC 35695, E. faecalis ATCC 29212) were obtained from the American Type Culture Collection (ATCC, Rockville, MD). S. aureus strains CMRSA-10 and CMRSA-2 were obtained from the Laboratoire de santé publique du Québec (LSPQ, Sainte-Anne-de-Bellevue, QC, Canada) and are Canadian CA-MRSA USA-300 and HA-MRSA USA-100 clones, respectively. The strain E. coli imp4213 (lptD), used as a control in MIC assays, is a derivative of E. coli ATCC 35695 (E. coli MC4100) with an increased membrane permeability. […] Other MRSA strains used in this study are clinical isolates of human origin obtained from the microbiology laboratory of the Centre Hospitalier Universitaire de Sherbrooke (CHUS, Sherbrooke, QC, Canada). Bovine mastitis strains (S. aureus, S. chromogenes, S. haemolyticus, S. hominis, S. simulans) were obtained from the Canadian Bovine Mastitis and Milk Quality Research Network (CBRQMN, St-Hyacinthe, QC, Canada). Among these strains, S. aureus 2117 is a high producer of biofilm and was used in the biofilm-eradication assay. S. epidermidis isolates were provided by Centre de Recherche en Infectiologie (CRI) de Québec (Québec, QC, Canada).
# (§2) The antibacterial activity of the most promising compound, PC206, was also evaluated against larger groups of clinical isolates of human and animal origin. The MIC50 and MIC90 values represented the concentrations of drug required to inhibit the growth of 50% and 90% of the bacterial strains tested, respectively.
# MRSA = experiment: as above; type: cell-based, Staphylococcus aureus; conditions: 42 isolates
# Description: as §1, §2
# [1] = test system: Staphylococcus aureus CMRSA-10; experiment: Broth microdilution MIC; type: cell-based; conditions: CMRSA10, S. aureus CMRSA-10, read-out: Broth Microdilution MIC
# Description: as §1
# [2] = test system: Staphylococcus aureus CMRSA-2; experiment: Broth microdilution MIC; type: cell-based; conditions: CMRSA2, S. aureus CMRSA-2, read-out: Broth Microdilution MIC
# Description: as §1
# MTT assay = type: cell-based; conditions: human, HepG2 cells
# LDH release assay [3] = type: cell-based; conditions: human, HepG2 cells
# LDH release assay [4] = type: cell-based; conditions: bovine, MAC-T cells
# [5] = test system: Staphylococcus aureus ATCC 29213; experiment: Broth microdilution MIC; conditions: ATCC29213, read-out: Broth Microdilution MIC
# [6] = test system: HepG2 and MAC-T cells versus S. aureus Newbould; experiment: Selectivity ratios over both assays and both cell lines; type: cell-based; conditions: over MTT and LDH assays
# Experimental: All CC50 values are reported in Table 3, and plots are provided in the Supplementary Information (Supplementary Figure S2). PC371 had no effect on cell viability even at the highest concentrations tested (CC50 > 600 μM) in both the MTT and the LDH assay and for the two cell lines tested. For the three other compounds, in both cell lines and both assays, a correlation was observed between the effect on cell viability and the length of their aliphatic chain. CC50 of PC372 (5 carbons) was higher than that of PC206 (6 carbons), and both were higher than that of PC383 (10 carbons). Indeed, for the MAC-T cells in the MTT assay, the values were >600 μM (PC372), 317 μM (PC206), and 13.5 μM (PC383). Again, for the MAC-T cell line, the values for the LDH assay were >600 μM (PC372 and PC206) and 23.6 μM (PC383). Similar results were obtained with the HepG2 cells. […] Overall, the MAC-T cells tolerated better exposure to the compounds than the HepG2 cells. To assess the selectivity of the PC2 analogs towards S. aureus, selectivity ratios were calculated. These ratios were obtained by dividing the cytotoxicity CC50 values of an analog by its MIC against S. aureus Newbould. It was not possible to calculate the selectivity ratio for PC371 as its CC50 and MIC values exceeded the maximum values tested.
# [7] = test system: S. aureus Newbould, S. aureus CMRSA-10, S. epidermidis ATCC 12228; experiment: Kill kinetics; type: cell-based, staphylococci
# Experimental: Time-kill kinetics studies were performed to define the bactericidal effect of PC206. S. aureus Newbould, CMRSA-10, or S. epidermidis ATCC 12228 were inoculated at a density of approximately 5 × 10^5 CFU/mL in CAMHB in the absence or presence of PC206 and were incubated with agitation (225 rpm) for 24 h at 35 °C. Right before inoculation and 0.5, 1, 2, 4, 8 and 24 h thereafter, bacterial cultures were sampled, serially diluted, and plated on tryptic soya agar (TSA) plates that were incubated at 35 °C for 24 h to determine viable counts with a detection limit of 2 log10 CFU/mL.
# [8] = test system: Staphylococcus epidermidis ATCC 12228; experiment: Broth microdilution MIC; conditions: ATCC12228, read-out: Broth Microdilution MIC
# [9] = Initial safety assessment in cows; type: in vivo; conditions: single intramammary infusion of 100, 250 or 500 mg
# Experimental: The innocuity of PC206 was evaluated in cows, as previously described for other test substances. Following morning milking, each of the four mammary gland quarters […] was infused with various doses of PC206 (100, 250, 500 mg) or saline as a negative control. […] Cows were milked using an individual quarter-milking unit in order to measure individual quarter-milk production. PC206 concentration in milk was also measured; milk samples were diluted with an equal volume of isopropanol and washed 3 times with hexane. PC206 was extracted using ethyl acetate, filtered on Na2SO4, and evaporated. The dried samples were diluted 80:20 in ACN:H2O containing an internal standard. The content of PC206 was determined using single-ion monitoring (SIMS) on UPLC-MS.
# [10] = Staphylococcus aureus, read-out: MIC50
# [11] = Staphylococcus aureus, read-out: MIC90
structure (smiles),measurement,setting,value
CCCCCCNc1cc(N)nc(N)n1 [PC206],MIC Range,Bovine S. aureus,0.5 to 64 µg/mL
same,MIC50,Bovine S. aureus; [10],8 µg/mL
same,MIC90,Bovine S. aureus; [11],16 µg/mL
same,MIC Range,MRSA,2 to 128 µg/mL
same,MIC50,MRSA; [10],8 µg/mL
same,MIC90,MRSA; [11],16 µg/mL
same,MIC,[1],4 µg/mL
same,MIC,[2],8 µg/mL
same,CC50 at 24 h,MTT assay,160 ± 31 µM
same,CC50 at 24 h,LDH release assay [3],149 ± 24 µM
same,CC50 at 24 h,LDH release assay [4]; 24 h,> 600 µM
same,CC50 at 24 h,LDH release assay [4]; converted from μM,> 125 µg/mL
same,MIC,[5],8 µg/mL
same,"Selectivity ratio (CC50/MIC against S. aureus Newbould), overall",[6],above 3.9
same,Reduction of bacterial viable counts at 24 h compared to the initial inoculum,[7]; 4× MIC,0.5–1.5 log10 CFU/mL
same,Qualification from kill kinetics,"[7]; up to 4× MIC, 24 h",bacteriostatic agent
same,MIC,[8],4 µg/mL
same,Body temperature,[9],around 38 °C
same,Redness or swelling of quarters at milking,[9],Neither redness nor swelling was observed
same,Somatic cell counts and quarter-milk production,[9]; 69 h,remained unaffected; also recorded: did not impact somatic cells count
